The record followed here is ChEMBL document CHEMBL1201862, “PubChem BioAssay data set” (2004).

Common to all, as to assay: growth of human tumour cells (NCI), 48 h
In assay [1] the test system is HT-29.
The test system of assay [2] is Hs-578T.
Assay [3] deals with LOX IMVI.
In assay [4] the test system is UACC-62.
In assay [5] the test system is 786-0.
Assay [6] has as its system SF-268.
Assay [7] concerns SN12C.
Assay [8] relates to MDA-MB-231.
The subject of assay [9] is HCT-15.
The subject of assay [10] is SK-MEL-28.
The subject of assay [11] is U-251.
In assay [12] the test system is HCT-116.
Assay [13] concerns OVCAR-3.
For assay [14], the system named is COLO 205.
For assay [15], the system named is TK-10.
The subject of assay [16] is CCRF-CEM.
Assay [17] concerns MOLT-4.
In assay [18] the test system is OVCAR-5.
Assay [19] deals with HCC 2998.

Structures are written as SMILES.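 Exposure lasted 48 hours, with cells grown in 96-well plates and compounds tested at five concentrations. GI50 marks 50% less growth.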 Activity calls are given as the source filed them. No stated cut-off is given here; in the data, active = GI50 up to about 1.1 µM and inactive = higher.

Regarding `O=C(O)CSc1ccn(Cc2ccccc2)c1`, the GI50 in assay [1], in assay [2], in assay [3], in assay [4], in assay [5] and in [6] was > 100 µM (inactive) throughout. Besides, the GI50 was > 100 µM (inactive) in assay [7]; > 100 µM (inactive) in assay [8]; > 100 µM in [9]; > 100 µM (inactive) in [10]; > 100 µM (inactive) in assay [11]; > 100 µM (inactive) in assay [12]. Also, the GI50 in assay [13], in assay [14], in assay [15], in [16], in assay [17] and in [18] was > 100 µM (inactive) each time.

Turning to `C=CCn1c(-c2cc(C(C)(C)C)c(O)c(C(C)(C)C)c2)cs/c1=N\C(P(=O)(O)O)P(=O)(O)O`, the GI50 in assay [1] is > 100 µM (inactive); in [2], > 100 µM (inactive); in [5], 36.8 µM (inactive); in assay [6], > 100 µM (inactive); in assay [7], > 100 µM (inactive); in [8] it was 35.2 µM (inactive). In addition, the GI50 was > 100 µM (inactive) in assay [19]; > 100 µM in assay [9]; > 100 µM (inactive) in assay [10]; > 100 µM (inactive) in [11]; 14.7 µM (inactive) in assay [12]; > 100 µM (inactive) in [13]. For the same compound, the GI50 in assay [14], in [15], in assay [17] and in assay [18] was > 100 µM (inactive) throughout.

With `O=c1[nH]c(=O)n(C2OC(CO)C(O)C2O)c2nc(-c3ccc(-c4ccccc4)cc3)cnc12` (centres undefined), the GI50 in [1], in assay [2], in assay [3], in [4], in assay [5] and in assay [6] was > 100 µM (inactive) in each case. For the same compound, the GI50 in assay [7] was > 100 µM (inactive); in [8], > 100 µM (inactive); in [19], > 100 µM (inactive); in assay [9], > 100 µM; in assay [11], > 100 µM (inactive); in [12] it was > 100 µM (inactive). In addition, the GI50 in assay [14], in [15], in assay [16], in assay [17] and in [18] was > 100 µM (inactive) in each case.

Turning to `COc1cc2ccc(C(C)NCC#N)cc2cc1OC` (centres undefined), the GI50 in assay [1] was 75.2 µM (inactive); in [2], > 100 µM (inactive); in assay [3], > 100 µM (inactive); in assay [4], > 100 µM (inactive); in assay [5] it was > 100 µM (inactive); in assay [6] it was > 100 µM (inactive). The GI50 in assay [7] was > 100 µM (inactive); in assay [8] it was > 100 µM (inactive); in [19], 36.4 µM (inactive); in assay [9] it was > 100 µM; in [10] it was > 100 µM (inactive); in [11] it was > 100 µM (inactive). The GI50 in assay [12] was > 100 µM (inactive); in assay [13], > 100 µM (inactive); in assay [14], > 100 µM (inactive); in [15], > 100 µM (inactive); in assay [17], 28.8 µM (inactive); in [18], > 100 µM (inactive).

Turning to `Cc1c2c(n(CCc3ccccc3)c1C)NN=C(C#N)S2(=O)=O`, the GI50 in assay [1], in assay [2], in assay [3], in assay [4], in assay [5] and in assay [6] was > 100 µM (inactive) throughout. Also, the GI50 in assay [7] is > 100 µM (inactive); in [8] it was > 100 µM (inactive); in [19] it was > 100 µM (inactive); in [9] it was > 100 µM; in assay [10] it was > 100 µM (inactive); in assay [11], > 100 µM (inactive). In addition, the GI50 in assay [12], in [13], in [14], in assay [15], in assay [17] and in assay [18] was > 100 µM (inactive) each time.

With `CCSC1=N/C(=C\c2ccco2)C(=O)N1`, the GI50 in assay [1], in assay [2], in assay [3], in assay [4], in assay [5] and in assay [6] was > 100 µM (inactive) each time. The GI50 in assay [7] is > 100 µM (inactive); in [8], > 100 µM (inactive); in [9], > 100 µM; in [10], > 100 µM (inactive); in [11], > 100 µM (inactive); in assay [12] it was > 100 µM (inactive). For the same compound, the GI50 in assay [13], in [14], in assay [15], in [16], in [17] and in assay [18] was > 100 µM (inactive) in each case.

Consider `CCCCSC1=N/C(=C\c2ccccc2O)C(=O)N1`, for which the GI50 was 70.6 µM (inactive) in [1]; > 100 µM (inactive) in [2]; 84.3 µM (inactive) in assay [3]; 44.3 µM (inactive) in assay [4]; 69.7 µM (inactive) in assay [5]; > 100 µM (inactive) in assay [6]. Further, the GI50 was 79.1 µM (inactive) in assay [7]; 34 µM (inactive) in [8]; 53.2 µM (inactive) in [19]; 96.6 µM in assay [9]; > 100 µM (inactive) in assay [10]; 43.8 µM (inactive) in assay [11]. The GI50 in assay [12] was 40.3 µM (inactive); in assay [13], > 100 µM (inactive); in assay [14], > 100 µM (inactive); in assay [15], 76.9 µM (inactive); in [17], 68.9 µM (inactive); in assay [18] it was > 100 µM (inactive).

For `O=C(c1ccccc1Cl)n1oc2ccccc2c1=O`, the GI50 was 60.4 µM (inactive) in assay [1]; > 100 µM (inactive) in assay [2]; 72.3 µM (inactive) in [3]; > 100 µM (inactive) in [4]; 77.1 µM (inactive) in assay [5]; > 100 µM (inactive) in [6]. Moreover, the GI50 was > 100 µM (inactive) in [7]; > 100 µM (inactive) in assay [8]; 85.5 µM in [9]; > 100 µM (inactive) in assay [10]; > 100 µM (inactive) in [11]; 52.8 µM (inactive) in [12]. Moreover, the GI50 in assay [13] was > 100 µM (inactive); in assay [14], 35.7 µM (inactive); in [15], > 100 µM (inactive); in assay [16], 27.5 µM (inactive); in assay [17] it was 22.8 µM (inactive); in [18] it was > 100 µM (inactive).

In the case of `COc1nc(N)nc2c1n(C)c[n+]2C`, the GI50 in [1], in assay [2], in assay [3], in assay [4], in assay [5] and in assay [6] was > 100 µM (inactive) in each case. The GI50 in assay [7] was > 100 µM (inactive); in assay [8] it was > 100 µM (inactive); in assay [9], > 100 µM; in assay [10], > 100 µM (inactive); in assay [11], > 100 µM (inactive); in assay [12], > 100 µM (inactive). Further, the GI50 in [13], in assay [14], in [15], in assay [16], in [17] and in [18] was > 100 µM (inactive) in each case.

As for `O=S(=O)(/N=S(/Nc1ccccc1)C(Cl)Cl)c1ccccc1` (centres undefined), the GI50 in assay [1], in assay [2], in assay [3], in assay [4], in assay [5] and in [6] was > 100 µM (inactive) in each case. The GI50 in [7] is > 100 µM (inactive); in [8], > 100 µM (inactive); in assay [9] it was > 100 µM; in [10], > 100 µM (inactive); in [11], > 100 µM (inactive); in assay [12] it was > 100 µM (inactive). The GI50 in assay [13], in assay [14], in [15], in [16], in [17] and in assay [18] was > 100 µM (inactive) in each case.

Take `Clc1ccccc1-c1nc(-c2ccncc2)no1` [PIFEXOLE]: the GI50 in [1] was 66.1 µM (inactive); in assay [2] it was 36.6 µM (inactive); in assay [4], 73.6 µM (inactive); in assay [5], > 100 µM (inactive); in assay [6], 59.6 µM (inactive); in [7] it was 38.2 µM (inactive). Moreover, the GI50 in assay [8] was 94.4 µM (inactive); in assay [19], 25.1 µM (inactive); in assay [9], 44.7 µM; in assay [10] it was > 100 µM (inactive); in assay [11] it was 65.8 µM (inactive); in assay [12], 43.4 µM (inactive). The GI50 in assay [13] is 44.9 µM (inactive); in assay [14], 40.8 µM (inactive); in assay [15], 42.8 µM (inactive); in assay [17], 26.8 µM (inactive); in [18], > 100 µM (inactive).
